3 compounds from paper PMC13504986 (Nature, 2024) can be followed below.

One test addresses T1, OR1A1 (Homo sapiens, UniProt Q9P1Q5).
T1 sequence (Q9P1Q5 1-309): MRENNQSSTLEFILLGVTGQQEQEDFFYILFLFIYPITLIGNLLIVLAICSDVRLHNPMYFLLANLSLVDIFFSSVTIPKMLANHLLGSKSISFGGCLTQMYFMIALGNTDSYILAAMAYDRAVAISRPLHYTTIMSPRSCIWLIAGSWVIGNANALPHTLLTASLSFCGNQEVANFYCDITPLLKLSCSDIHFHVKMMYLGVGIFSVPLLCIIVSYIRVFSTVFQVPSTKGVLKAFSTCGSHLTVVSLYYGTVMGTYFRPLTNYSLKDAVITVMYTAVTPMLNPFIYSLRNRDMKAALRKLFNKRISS
The test can be described thus: GloSensor cAMP assay, HEK293T with RTP1S. It is filed as cell-based. On the technique in general: cAMP levels reflect the balance of adenylyl cyclase and phosphodiesterase activity.

For a further test, the target named is T2, OR51E1 (Homo sapiens, UniProt Q8TCB6).
T2 sequence (Q8TCB6 2-318 limits assumed): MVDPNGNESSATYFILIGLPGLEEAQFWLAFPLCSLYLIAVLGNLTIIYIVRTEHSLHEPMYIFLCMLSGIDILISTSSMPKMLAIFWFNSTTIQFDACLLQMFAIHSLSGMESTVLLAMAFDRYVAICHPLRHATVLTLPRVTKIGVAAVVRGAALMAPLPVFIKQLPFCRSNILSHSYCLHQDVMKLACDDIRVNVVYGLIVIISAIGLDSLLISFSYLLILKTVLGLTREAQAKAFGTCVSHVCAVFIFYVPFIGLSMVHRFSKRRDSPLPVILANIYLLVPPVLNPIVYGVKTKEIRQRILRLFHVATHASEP
In words: GloSensor cAMP assay, HEK293T. In kind it is cell-based.

The structures appear in SMILES notation.

One may read the EC50 as the concentration at which the effect is half-maximal. A higher EC50 goes with a less potent agent. `CC(C)[C@@H]1CC[C@@H](C)C[C@H]1O` [L-menthol] had an EC50 on OR1A1 of 38.9 µM.

Take `C=C(C)[C@@H]1CC=C(C)C(=O)C1` [R-carvone]: the EC50 at OR1A1 is 0.513 µM.

Turning to `CCCCC(=O)O` [pentanoate], on OR51E1, a half-maximal response (EC50) required 34.7 µM.
